# Like-named read-outs stand apart in the source and are kept apart here.
# Columns and labels:
# [1] = molecular target: T1, Bcl-2 protein (Recombinant Human Bcl-2 Protein) (Homo sapiens, UniProt P10415); experiment: Binding evaluation of mixture library compounds to Bcl-2 using AS-MS (affinity selection mass spectrometry)
# T1 construct: purchased Novus NBP2-34889
# Method in brief: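 Affinity selection MS: Bcl-2 20 μM + 1200-cpd mixture, […]/cpd, Tris pH 7.4 buffer w/ Tween-20, DTT; 1 h 23° C dark; P-2 spin SEC; MeCN/MeOH extraction; RP LC/MS. ASMS Ratio(%) = (A−C)/B×100.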
# human Bcl-2 protein = molecular target: T2, human Bcl-2 protein (Homo sapiens, UniProt P10415); experiment: Binding evaluation of compounds to Bcl-2 by surface plasmon resonance (SPR); conditions: for Kd: binding to Bcl-2, compounds evaluated before library synthesis, read-out: KD
# T2 construct: purchased Novus Biologicals
# Protocol: In order to analyze the binding affinity of the compounds shown in [Table AK-O1] and synthesized in Example 8 to Bcl-2, the surface plasmon resonance method was used. Biacore T200 (GE Healthcare) was used as the apparatus, and HBS (10 mM HEPES-NaOH, 150 mM NaCl, pH 7.4) to which 1 mM DTT, 3 mM EDTA, 0.01% Tween 20, and 4% DMSO had been added was used as the running buffer. The human Bcl-2 protein (Novus Biologicals) was biotinylated using EZ-Link Sulfo-NHS-LC-LC-biotin (Thermofisher scientific) and immobilized on the surface of Sensor Chip SA (GE Healthcare). Thereafter, compound solutions of multiple concentrations and the running buffer (blank) were added to the Bcl-2 immobilized surface to obtain the binding response of the compounds. The measurement was carried out at 15° C.
# [2] = cited from earlier work; for Base/pKBH^+ (CH3CN): pKa of conjugate acid of the base in CH3CN; for Base/pKBH+ (CH3CN): transcribed from the Aldrich web site for phosphazene bases
# [3] = Biacore T200, 15° C., compounds synthesized before performing library synthesis
# [4] = first value in parentheses, (A−C)/B×100, 1200-compound mixture, Bcl-2 20 μM
# [5] = second value in parentheses, (A−C)/B×100, 1200-compound mixture, Bcl-2 20 μM
# [6] = Biacore T200, biotinylated human Bcl-2 immobilized on Sensor Chip SA, 15° C., compounds found by AS-MS evaluation of synthesized library
# [7] = Table 3-5-3, from Aldrich web site and Chem. Eur. J. 2021, 27, 4216-4229
# [8] = Table 3-5-1, transcribed from Aldrich web site
# [9] = Table 3-5-2, transcribed from Aldrich web site
# T2 sequence (P10415 whole entry): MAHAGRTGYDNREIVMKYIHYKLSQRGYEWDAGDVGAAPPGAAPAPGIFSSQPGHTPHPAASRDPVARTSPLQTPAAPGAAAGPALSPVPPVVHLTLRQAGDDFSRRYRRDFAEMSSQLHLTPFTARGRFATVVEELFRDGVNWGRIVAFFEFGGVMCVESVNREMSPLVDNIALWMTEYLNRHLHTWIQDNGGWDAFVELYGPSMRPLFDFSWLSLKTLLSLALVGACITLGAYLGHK
# T1 sequence (P10415 whole entry): as above
smiles,measurement,setting,value
"CCOc1cccc(-c2ccccc2CN2CCN(c3ccc(C(=O)NS(=O)(=O)c4ccc(NCCSc5ccccc5)c(C(F)(F)F)c4)cc3)CC2)c1 [B2R045-01, 4-[4-[[2-(3-ethoxyphenyl)phenyl]methyl]piperazin-1-yl]-N-[4-(2-phenylsulfanylethylamino)-3-(trifluoromethyl)phenyl]sulfonylbenzamide]",ASMS ratio (%),[1]; n = 1,4.8%
same,ASMS ratio (%),[1]; n = 2,−3.4%
same,Equilibrium dissociation constant KD,human Bcl-2 protein; [3],Bound
same,Kd,human Bcl-2 protein,> 20 µM
"CCOc1cncc(-c2ccccc2CN2CCN(c3ccc(C(=O)NS(=O)(=O)c4ccc(NCCSc5ccccc5)c(C(F)(F)F)c4)cc3)CC2)c1 [B2R046-01, 4-[4-[[2-(5-Ethoxypyridin-3-yl)phenyl]methyl]piperazin-1-yl]-N-[4-(2-phenylsulfanylethylamino)-3-(trifluoromethyl)phenyl]sulfonylbenzamide]",ASMS ratio (%),[1]; n = 1,−0.2%
same,ASMS ratio (%),[1]; n = 2,0.0%
same,Equilibrium dissociation constant KD,human Bcl-2 protein; [3],Bound
same,Kd,human Bcl-2 protein,> 20 µM
"CCOc1cncc(-c2ccc(CN3CCN(c4ccc(C(=O)NS(=O)(=O)c5ccc(NCCSc6ccccc6)c(C(F)(F)F)c5)nn4)CC3)cc2C)c1 [B2R074-01, 6-[4-[[4-(5-ethoxypyridin-3-yl)-3-methylphenyl]methyl]piperazin-1-yl]-N-[4-(2-phenylsulfanylethylamino)-3-(trifluoromethyl)phenyl]sulfonylpyridazine-3-carboxamide]",ASMS ratio (%),[1]; [4],22.4%
same,ASMS ratio (%),[1]; n = 1,22.4%
same,ASMS ratio (%),[1]; n = 2,25.4%
same,ASMS ratio (%),[1]; [5],25.4%
same,Equilibrium dissociation constant KD,human Bcl-2 protein; [6],Binding not observed
"CCOc1cccc(-c2ccc(CN3CCN(c4ccc(C(=O)N(C)CC56CC7CC(CC(C7)C5)C6)nn4)CC3)cc2C)c1 [B3A073-01, N-(1-adamantylmethyl)-6-[4-[[4-(3-ethoxyphenyl)-3-methylphenyl]methyl]piperazin-1-yl]-N-methylpyridazine-3-carboxamide]",ASMS ratio (%) n = 1,"[1]; AS-MS on the mixture of 1200 library compounds, ASMS Ratio(%)=(A−C)/B×100, replicate n = 1",31.3%
same,ASMS ratio (%) n = 2,"[1]; AS-MS on the mixture of 1200 library compounds, ASMS Ratio(%)=(A−C)/B×100, replicate n = 2",28.6%
same,ASMS ratio (%),[1]; [4],31.3%
same,ASMS ratio (%),[1]; [5],28.6%
same,Equilibrium dissociation constant KD,human Bcl-2 protein; [6],Binding not observed
"CN(C)C(=NC(C)(C)C)N(C)C [BTMG, 2-tert-butyl-1,1,3,3-tetramethylguanidine]",Base/pKBH^+ (CH3CN),[2]; [7],(23.6)
"CC(C)(C)N=P(N1CCCC1)(N1CCCC1)N1CCCC1 [BTPP, tert-Butylimino-tri(pyrrolidino)phosphorane]",Base/pKBH^+ (CH3CN),[2]; [8],(28.4)
same,Base/pKBH^+ (CH3CN),[2]; [9],(28.4)
same,Base/pKBH^+ (CH3CN),[2]; [7],(28.4)
"CCN(C(C)C)C(C)C [DIPEA, N,N-Diisopropylethylamine]",pKBH+ value in CH3CN,"[2]; Example 3-5-3, Aldrich web site and Chem. Eur. J. 2021, 27, 4216-4229",18.8
same,Base/pKBH^+ (CH3CN),[2]; [7],(18.8)
"CN(C)P(=NC(C)(C)C)(N(C)C)N(C)C [P1tBu, tert-Butylimino-tris(dimethylamino)phosphorane]",Base/pKBH+ (CH3CN),[2]; Table 2-2,26.9
same,Base/pKBH+ (CH3CN),[2]; Table 3-4,P1tBu (26.9)
same,Base/pKBH^+ (CH3CN),[2]; [8],(26.9)
same,Base/pKBH^+ (CH3CN),[2]; [9],(26.9)
same,Base/pKBH^+ (CH3CN),[2]; [7],(26.9)
"CCN=P(N=P(N(C)C)(N(C)C)N(C)C)(N(C)C)N(C)C [P2Et, 1-Ethyl-2,2,4,4,4-pentakis(dimethylamino)-2λ^5,4λ^5-catenadi(phosphazene)]",Base/pKBH+ (CH3CN),[2]; Table 2-2,32.9
same,Base/pKBH+ (CH3CN),[2]; Table 3-1,(32.9)
same,Base/pKBH^+ (CH3CN),"[2]; Table 3-3, transcribed from Aldrich web site",(32.9)
same,Base/pKBH^+ (CH3CN),[2]; [7],(32.9)
"CN(C)P(=NC(C)(C)C)(N=P(N(C)C)(N(C)C)N(C)C)N(C)C [P2tBu, 1-tert-Butyl-2,2,4,4,4-pentakis(dimethylamino)-2λ^5,4λ^5-catenadi(phosphazene)]",Base/pKBH+ (CH3CN),[2]; Table 3-1,(33.5)
same,Base/pKBH+ (CH3CN),[2]; Table 3-4,P2tBu (33.5)
"C1CN=C2NCCCN2C1 [TBD, 1,5,7-triazabicyclo[4.4.0]dec-5-ene]",Base/pKBH^+ (CH3CN),[2]; [7],(26.0)
